Test results reported in ChEMBL document CHEMBL2146467, “Generation and exploration of new classes of antitubercular agents: The optimization of oxazolines, oxazoles, thiazolines, thiazoles to imidazo[1,2-a]pyridines and isomeric 5,6-fused scaffolds” (Bioorg Med Chem, 2012).
≈ marks a conversion by molar mass, not a printed value.

Assays:
Type in all cases: functional
Details in all cases: 336 h
[1] = test system: Mycobacterium tuberculosis; test: Antimycobacterial activity against isoniazid-,rifampin-,ethambutol-,kanamycin-,ofloxacin-resistant Mycobacterium tuberculosis after 14 days
[2] = test system: Mycobacterium tuberculosis; test: Antimycobacterial activity against isoniazid-,rifampin-,ethambutol-,streptomycin-,kanamycin-,ofloxacin-resistant Mycobacterium tuberculosis after 14 days
[3] = test system: Mycobacterium tuberculosis; test: Antimycobacterial activity against isoniazid-,rifampin-,ethambutol-,rifabutin-resistant Mycobacterium tuberculosis after 14 days

O=C(OCc1ccccc1)c1coc(-c2ccccc2)n1
MIC90 [1]: 8.9 µM (≈ 2.49 µg/mL) | MIC90 [2]: 4.4 µM (≈ 1.23 µg/mL)

O=C(OCc1ccccc1)c1csc(-c2ccccc2)n1
MIC90 [1]: 16.9 µM (≈ 4.99 µg/mL) | MIC90 [2]: 16.9 µM (≈ 4.99 µg/mL) | MIC90 [3]: 33.9 µM (≈ 10 µg/mL)

Cc1ccn2c(C(=O)OCc3ccccc3)c(C)nc2c1
MIC90 [1]: < 0.04 µM | MIC90 [2]: < 0.04 µM | MIC90 [3]: 0.57 µM (≈ 0.16 µg/mL)

O=[N+]([O-])c1cn2c(n1)OC[C@@H](OCc1ccc(OC(F)(F)F)cc1)C2 [PRETOMANID]
MIC90 [1]: 0.22 µM (≈ 0.079 µg/mL) | MIC90 [2]: 0.86 µM (≈ 0.309 µg/mL) | MIC90 [3]: 0.45 µM (≈ 0.162 µg/mL)
